Consider 12 molecules from patent US9592221B2, “Antibacterial agents: aryl myxopyronin derivatives” (priority 2012, dated 2017).

The subject of experiment [1] is Acinetobacter baumannii ATCC 19606. Nature of the experiment: MIC, spiral gradient endpoint assay, A. baumannii. To be noted: ATCC19606; Acinetobacter baumannii ATCC 19606. Format: cell-based.
The test system of experiment [2] is Escherichia coli D21f2tolC. Kind of experiment: MIC, spiral gradient endpoint assay, E. coli D21f2tolC. Format: cell-based. The note with it: Escherichia coli, D21F2TOLC, read-out: MIC E. coli D21f2toIC.
Experiment [3] relates to Brucella melitensis 16M. Kind of experiment: microbe, parasite or virus in culture. Format: cell-based. To be noted: Brucella melitensis, 16M, read-out: MIC B. melitensis 16M.
For experiment [4], the system named is Francisella tularensis SCHU4. Kind of experiment: microbe, parasite or virus in culture. Format: cell-based. The note with it: Francisella tularensis, SCHU4, read-out: MIC F. tularensis SCHU4.
Experiment [5] has as its system Burkholderia pseudomallei Human/Blood/OH/US/1994. Nature of the experiment: microbe, parasite or virus in culture. Format: cell-based. The note with it: Burkholderia pseudomallei, read-out: MIC B. pseudomallei Human/Blood/OH.
In experiment [6] the test system is Staphylococcus aureus ATCC 12600. Kind of experiment: MIC, spiral gradient endpoint assay, S. aureus ATCC 12600. Format: cell-based. The note with it: ATCC12600; Staphylococcus aureus ATCC 12600.
Experiment [7] deals with Burkholderia mallei CHN7. Nature of the experiment: microbe, parasite or virus in culture. To be noted: Burkholderia mallei, CHN7, read-out: MIC B. mallei CHN7. Format: cell-based.
For experiment [8], the system named is Bacillus anthracis Vollum 1b. Nature of the experiment: microbe, parasite or virus in culture. Format: cell-based. To be noted: Bacillus anthracis, VOLLUM1B, read-out: MIC B. anthracis Vollum-1b.
Experiment [9] relates to Yersinia pestis C092. Nature of the experiment: microbe, parasite or virus in culture. Format: cell-based. The note with it: Yersinia pestis, C092, read-out: MIC Y. pestis C092.
Experiment [10] deals with E. coli RNA polymerase σ^70 holoenzyme (Escherichia coli, UniProt P0A8T7+P0A8V2). Nature of the experiment: Fluorescence-detected RNA polymerase assay, E. coli RNA polymerase. Format: biochemical. The note with it: read-out: IC50 E. coli RNAP.
Sequence of E. coli RNA polymerase σ^70 holoenzyme (P0A8T7 whole entry): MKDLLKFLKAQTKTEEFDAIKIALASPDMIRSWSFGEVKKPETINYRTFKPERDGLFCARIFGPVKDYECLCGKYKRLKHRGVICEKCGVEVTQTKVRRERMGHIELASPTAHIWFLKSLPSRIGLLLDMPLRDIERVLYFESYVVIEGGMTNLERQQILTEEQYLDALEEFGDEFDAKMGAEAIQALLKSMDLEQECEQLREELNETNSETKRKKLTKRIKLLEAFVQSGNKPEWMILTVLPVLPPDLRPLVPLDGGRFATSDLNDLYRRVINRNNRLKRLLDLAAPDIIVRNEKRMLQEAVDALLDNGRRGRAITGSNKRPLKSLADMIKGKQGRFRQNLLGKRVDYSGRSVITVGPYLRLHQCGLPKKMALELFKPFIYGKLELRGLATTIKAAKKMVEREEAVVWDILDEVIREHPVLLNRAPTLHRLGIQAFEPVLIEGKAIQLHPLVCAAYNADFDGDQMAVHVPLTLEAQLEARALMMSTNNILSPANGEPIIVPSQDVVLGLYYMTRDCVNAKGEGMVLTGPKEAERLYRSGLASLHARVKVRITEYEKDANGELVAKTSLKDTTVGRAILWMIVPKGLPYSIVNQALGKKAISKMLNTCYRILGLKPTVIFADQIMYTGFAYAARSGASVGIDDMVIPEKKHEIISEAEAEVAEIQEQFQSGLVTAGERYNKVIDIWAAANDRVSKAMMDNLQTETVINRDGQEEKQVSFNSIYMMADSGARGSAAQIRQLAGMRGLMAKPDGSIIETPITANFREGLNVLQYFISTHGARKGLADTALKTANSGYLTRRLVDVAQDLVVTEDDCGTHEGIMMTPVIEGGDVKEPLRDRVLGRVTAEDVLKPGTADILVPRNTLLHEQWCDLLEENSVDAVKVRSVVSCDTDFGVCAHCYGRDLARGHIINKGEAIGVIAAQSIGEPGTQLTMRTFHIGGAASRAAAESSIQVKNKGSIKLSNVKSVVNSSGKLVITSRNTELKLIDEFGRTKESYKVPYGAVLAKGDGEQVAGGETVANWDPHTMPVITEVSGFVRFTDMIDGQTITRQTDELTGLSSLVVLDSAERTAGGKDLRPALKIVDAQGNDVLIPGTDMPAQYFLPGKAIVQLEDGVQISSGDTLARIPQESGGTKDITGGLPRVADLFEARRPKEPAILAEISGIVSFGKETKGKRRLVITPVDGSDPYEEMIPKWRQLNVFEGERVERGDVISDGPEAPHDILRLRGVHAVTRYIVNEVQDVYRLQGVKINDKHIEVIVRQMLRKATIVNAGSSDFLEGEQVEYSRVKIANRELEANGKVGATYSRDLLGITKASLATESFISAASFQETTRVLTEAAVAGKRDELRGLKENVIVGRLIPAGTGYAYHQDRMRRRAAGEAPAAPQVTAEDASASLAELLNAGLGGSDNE
Sequence of E. coli RNA polymerase σ^70 holoenzyme (P0A800 whole entry, further chain): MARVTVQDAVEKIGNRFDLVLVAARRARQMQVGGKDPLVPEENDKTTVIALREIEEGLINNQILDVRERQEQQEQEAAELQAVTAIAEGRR
Sequence of E. coli RNA polymerase σ^70 holoenzyme (P0A8V2 whole entry): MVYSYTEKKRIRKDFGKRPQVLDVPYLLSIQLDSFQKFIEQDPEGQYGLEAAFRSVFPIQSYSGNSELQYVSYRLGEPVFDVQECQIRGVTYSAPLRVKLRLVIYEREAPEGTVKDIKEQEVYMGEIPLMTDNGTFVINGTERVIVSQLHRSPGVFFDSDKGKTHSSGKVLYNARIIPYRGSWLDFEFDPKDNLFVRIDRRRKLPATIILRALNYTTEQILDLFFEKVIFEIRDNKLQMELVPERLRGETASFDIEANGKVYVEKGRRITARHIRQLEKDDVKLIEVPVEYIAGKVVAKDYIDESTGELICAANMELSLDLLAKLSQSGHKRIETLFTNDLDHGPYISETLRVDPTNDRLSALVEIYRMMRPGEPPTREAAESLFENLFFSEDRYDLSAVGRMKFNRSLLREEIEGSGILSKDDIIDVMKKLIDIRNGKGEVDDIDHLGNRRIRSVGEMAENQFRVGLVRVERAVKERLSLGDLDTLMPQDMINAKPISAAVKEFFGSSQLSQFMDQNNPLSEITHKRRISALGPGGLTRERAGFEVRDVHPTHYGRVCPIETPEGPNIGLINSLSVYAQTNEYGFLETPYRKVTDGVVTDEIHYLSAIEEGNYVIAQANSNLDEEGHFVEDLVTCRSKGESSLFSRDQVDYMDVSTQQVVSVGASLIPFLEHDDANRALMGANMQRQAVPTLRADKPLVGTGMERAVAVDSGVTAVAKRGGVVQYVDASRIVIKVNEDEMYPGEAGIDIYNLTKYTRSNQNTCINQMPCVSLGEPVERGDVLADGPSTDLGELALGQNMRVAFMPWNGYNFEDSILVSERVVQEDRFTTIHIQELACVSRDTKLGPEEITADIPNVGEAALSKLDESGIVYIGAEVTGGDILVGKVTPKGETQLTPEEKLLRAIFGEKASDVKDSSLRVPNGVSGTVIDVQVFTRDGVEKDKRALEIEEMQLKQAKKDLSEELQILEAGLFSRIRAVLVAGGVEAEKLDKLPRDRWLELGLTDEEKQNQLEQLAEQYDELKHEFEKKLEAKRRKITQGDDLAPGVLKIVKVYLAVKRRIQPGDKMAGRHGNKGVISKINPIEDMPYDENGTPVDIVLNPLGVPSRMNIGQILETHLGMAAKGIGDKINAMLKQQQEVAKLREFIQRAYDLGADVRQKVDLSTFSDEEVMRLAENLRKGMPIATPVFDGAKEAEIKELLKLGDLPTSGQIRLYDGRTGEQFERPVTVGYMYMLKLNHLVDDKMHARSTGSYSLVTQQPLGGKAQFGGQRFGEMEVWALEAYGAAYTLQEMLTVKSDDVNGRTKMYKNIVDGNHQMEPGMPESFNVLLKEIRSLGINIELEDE
Sequence of E. coli RNA polymerase σ^70 holoenzyme (P00579 whole entry, further chain): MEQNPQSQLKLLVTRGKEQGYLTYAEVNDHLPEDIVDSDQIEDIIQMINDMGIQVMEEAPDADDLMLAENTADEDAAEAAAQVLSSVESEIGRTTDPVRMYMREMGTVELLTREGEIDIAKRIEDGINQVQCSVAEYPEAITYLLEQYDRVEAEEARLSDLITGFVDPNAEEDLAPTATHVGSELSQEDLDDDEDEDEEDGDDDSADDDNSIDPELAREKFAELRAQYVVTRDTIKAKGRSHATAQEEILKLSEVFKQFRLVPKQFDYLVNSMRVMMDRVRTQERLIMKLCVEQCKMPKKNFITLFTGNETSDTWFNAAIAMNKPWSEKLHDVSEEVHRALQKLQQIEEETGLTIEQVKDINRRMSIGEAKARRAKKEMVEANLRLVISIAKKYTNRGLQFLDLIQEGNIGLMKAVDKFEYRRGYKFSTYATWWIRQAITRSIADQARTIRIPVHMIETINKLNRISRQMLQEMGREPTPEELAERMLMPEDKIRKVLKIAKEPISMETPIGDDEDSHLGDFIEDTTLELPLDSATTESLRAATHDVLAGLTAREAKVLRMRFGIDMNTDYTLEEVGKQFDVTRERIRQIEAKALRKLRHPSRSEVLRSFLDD
Sequence of E. coli RNA polymerase σ^70 holoenzyme (P0A7Z4 whole entry, further chain): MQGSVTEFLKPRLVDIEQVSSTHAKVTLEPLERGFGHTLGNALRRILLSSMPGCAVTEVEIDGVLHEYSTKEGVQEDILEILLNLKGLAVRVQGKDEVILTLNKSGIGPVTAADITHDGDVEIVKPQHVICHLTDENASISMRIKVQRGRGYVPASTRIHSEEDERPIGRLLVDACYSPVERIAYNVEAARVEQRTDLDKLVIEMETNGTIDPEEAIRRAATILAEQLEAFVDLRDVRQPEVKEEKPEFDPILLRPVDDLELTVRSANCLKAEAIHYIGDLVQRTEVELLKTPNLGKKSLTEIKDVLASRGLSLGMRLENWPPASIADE
The test system of experiment [11] is Mycobacterium tuberculosis H37Rv. Kind of experiment: MIC, microplate Alamar Blue assay, M. tuberculosis. Format: cell-based. In general terms: Resazurin is reduced to fluorescent resorufin, in cell work by metabolically active cells.

The term IC50 denotes the point on the concentration scale where inhibition reaches its midpoint. With `CCCCCCc1ccc(C=C(C)C(=O)c2c(O)cc(C(C)CC/C=C/NC(=O)OC)oc2=O)cn1` (mixture of isomers) [APY37, methyl (E)-5-(3-((E/Z)-3-(6-hexylpyridin-3-yl)-2-methylacryloyl)-4-hydroxy-2-oxo-2H-pyran-6-yl)hex-1-enylcarbamate], the MIC is above 40 µg/mL in experiment [1]; 0.6 µg/mL in [2]; 10 µg/mL in experiment [3]; 50 µg/mL in experiment [4]; above 50 µg/mL in experiment [5]; above 40 µg/mL in [6]. Besides, the MIC in experiment [7] is 50 µg/mL; in [8] it was 50 µg/mL; in [9] it was above 50 µg/mL; in [11], above 50 µg/mL. Moreover, the IC50 in experiment [10] is 90 nM.

As for `COC(=O)N/C=C/CCC(C)c1cc(O)c(C(=O)C(C)=Cc2ccc(Oc3ccc(C(F)(F)F)cc3)s2)c(=O)o1` (mixture of isomers) [APY119, methyl ((1E)-5-(4-hydroxy-3-(2-methyl-3-(5-(4-(trifluoromethyl)phenoxy)thiophen-2-yl)acryloyl)-2-oxo-2H-pyran-6-yl)hex-1-en-1-yl)carbamate], the MIC in experiment [1] was above 40 µg/mL; in experiment [2] it was 0.1 µg/mL; in [3], 3 µg/mL; in [4], 50 µg/mL; in experiment [5], 6 µg/mL; in [6], 2 µg/mL. The MIC in experiment [7] was 3 µg/mL; in experiment [8], 0.8 µg/mL; in experiment [9], 3 µg/mL; in [11] it was above 50 µg/mL. The IC50 in experiment [10] worked out at 6 nM.

Turning to `COC(=O)N/C=C/CCC(C)c1cc(O)c(C(=O)C(C)=Cc2ccc(CCC(F)(F)F)cc2C)c(=O)o1` (mixture of isomers) [APY127, methyl ((1E)-5-(4-hydroxy-3-(2-methyl-3-(2-methyl-4-(3,3,3-trifluoropropyl)phenyl)acryloyl)-2-oxo-2H-pyran-6-yl)hex-1-en-1-yl)carbamate], the MIC in experiment [1] is above 40 µg/mL; in [2] it was 0.4 µg/mL; in [3], 50 µg/mL; in [4], above 50 µg/mL; in experiment [5] it was 50 µg/mL; in experiment [6], 2 µg/mL. The MIC amounted to 50 µg/mL in [7], 6 µg/mL in experiment [8], 50 µg/mL in experiment [9] and 50 µg/mL in experiment [11]. Moreover, the IC50 in experiment [10] turned out to be 70 nM.

For `COC(=O)N/C=C/CCC(C)c1cc(O)c(C(=O)C(C)=Cc2cc3cc(OC(C)C)ccc3n2C)c(=O)o1` (mixture of isomers) [APY123], the MIC in experiment [1] is above 40 µg/mL; in [2], 2 µg/mL; in [3] it was above 50 µg/mL; in experiment [4], above 50 µg/mL; in experiment [5], above 50 µg/mL; in experiment [6], above 40 µg/mL. Moreover, the MIC in experiment [7], in experiment [8], in [9] and in experiment [11] was above 50 µg/mL throughout. In addition, the IC50 in experiment [10] came out at 500 nM.

Regarding `COC(=O)N/C=C/CCC(C)c1cc(O)c(C(=O)C(C)=Cc2ccc(OC(C)C)cc2C)c(=O)o1` (mixture of isomers) [APY130, methyl ((1E)-5-(4-hydroxy-3-(3-(4-isopropoxy-2-methylphenyl)-2-methylacryloyl)-2-oxo-2H-pyran-6-yl)hex-1-en-1-yl)carbamate], the MIC was above 40 µg/mL in [1]; 2 µg/mL in [2]; above 50 µg/mL in [3]; above 50 µg/mL in experiment [4]; above 50 µg/mL in [5]; 3 µg/mL in experiment [6]. Further, the MIC is above 50 µg/mL in experiment [7], 10 µg/mL in experiment [8], above 50 µg/mL in experiment [9] and 30 µg/mL in experiment [11]. For the same molecule, the IC50 in experiment [10] is 200 nM.

With `COC(=O)N/C=C/CCC(C)c1cc(O)c(C(=O)C(C)=Cc2ccc(OCC(F)F)cc2C)c(=O)o1` (mixture of isomers) [APY131, methyl ((1E)-5-(3-(3-(4-(2,2-difluoroethoxy)-2-methylphenyl)-2-methylacryloyl)-4-hydroxy-2-oxo-2H-pyran-6-yl)hex-1-en-1-yl)carbamate], the MIC in experiment [1] was above 40 µg/mL; in [2], 0.7 µg/mL; in experiment [3], above 50 µg/mL; in [4], above 50 µg/mL; in [5], above 50 µg/mL; in experiment [6] it was 8 µg/mL. The MIC in [7] was above 50 µg/mL; in experiment [8] it was 30 µg/mL; in experiment [9], above 50 µg/mL; in experiment [11] it was 30 µg/mL. The IC50 in experiment [10] is 200 nM.

Consider `COC(=O)N/C=C/CCC(C)c1cc(O)c(C(=O)C(C)=Cc2ccc(CC3CC3)s2)c(=O)o1` (mixture of isomers) [APY125, methyl ((1E)-5-(3-(3-(5-(cyclopropylmethyl)thiophen-2-yl)-2-methylacryloyl)-4-hydroxy-2-oxo-2H-pyran-6-yl)hex-1-en-1-yl)carbamate], for which the MIC in experiment [1] was 20 µg/mL; in experiment [2], 0.6 µg/mL; in [3], 6 µg/mL; in [4], above 50 µg/mL; in [5], 50 µg/mL; in [6], 1 µg/mL. The MIC in experiment [7] turned out to be 10 µg/mL; in experiment [8] it was 6 µg/mL; in [9], 6 µg/mL; in [11], 10 µg/mL. Moreover, the IC50 in experiment [10] was determined as 40 nM.

With `CCCOc1ccc(C=C(C)C(=O)c2c(O)cc(C(C)CC/C=C/NC(=O)OC)oc2=O)cc1` (mixture of isomers) [APY40, methyl (E)-5-(4-hydroxy-3-((E/Z)-2-methyl-3-(4-propoxyphenyl)acryloyl)-2-oxo-2H-pyran-6-yl)hex-1-enylcarbamate], the MIC in experiment [1] was 9 µg/mL; in [2], 0.4 µg/mL; in [3] it was 3 µg/mL; in experiment [4] it was above 50 µg/mL; in experiment [5] it was above 50 µg/mL; in experiment [6] it was 1 µg/mL. The MIC is above 50 µg/mL in [7], 10 µg/mL in experiment [8], above 50 µg/mL in experiment [9] and 6 µg/mL in experiment [11]. Moreover, the IC50 in [10] is 10 nM.

In the case of `CCCCc1ccc(C=CC(=O)c2c(O)cc(C(C)CC/C=C/NC(=O)OC)oc2=O)s1` (mixture of isomers) [APY36, methyl (E)-5-(3-((E/Z)-3-(5-butylthiophen-2-yl)acryloyl)-4-hydroxy-2-oxo-2H-pyran-6-yl)hex-1-enylcarbamate], the MIC was above 40 µg/mL in [1]; 0.7 µg/mL in [2]; above 50 µg/mL in [3]; 6 µg/mL in experiment [4]; above 50 µg/mL in [5]; above 40 µg/mL in experiment [6]. Also, the MIC in experiment [7] was above 50 µg/mL; in [8] it was 6 µg/mL; in [9] it was above 50 µg/mL; in experiment [11], 30 µg/mL. Also, the IC50 in [10] was determined as 300 nM.

Take `CCCOc1ccc(C=C(C)C(=O)c2c(O)cc(C(C)CC/C=C/NC(=O)OC)oc2=O)c(C)c1` (mixture of isomers) [APY128, methyl ((1E)-5-(4-hydroxy-3-(2-methyl-3-(2-methyl-4-propoxyphenyl)acryloyl)-2-oxo-2H-pyran-6-yl)hex-1-en-1-yl)carbamate]: the MIC was above 40 µg/mL in experiment [1]; 0.6 µg/mL in [2]; above 50 µg/mL in [3]; above 50 µg/mL in experiment [4]; above 50 µg/mL in [5]; 4 µg/mL in experiment [6]. Also, the MIC in experiment [7] was above 50 µg/mL; in experiment [8], 10 µg/mL; in [9], above 50 µg/mL; in experiment [11], 30 µg/mL. Further, the concentration for half-maximal inhibition (IC50) in experiment [10] worked out at 500 nM.

`COC(=O)N/C=C/CCC(C)c1cc(O)c(C(=O)C(C)=Cc2cc(Br)c(CC(C)C)s2)c(=O)o1` (mixture of isomers) [APY120, methyl ((1E)-5-(3-(3-(4-bromo-5-isobutylthiophen-2-yl)-2-methylacryloyl)-4-hydroxy-2-oxo-2H-pyran-6-yl)hex-1-en-1-yl)carbamate]: the MIC turned out to be 30 µg/mL in experiment [1]; 0.2 µg/mL in experiment [2]; 3 µg/mL in experiment [3]; 50 µg/mL in experiment [4]; 10 µg/mL in experiment [5]; 1 µg/mL in [6]. The MIC in experiment [7] is 6 µg/mL; in experiment [8], 2 µg/mL; in experiment [9] it was 6 µg/mL; in experiment [11], above 50 µg/mL. Moreover, the IC50 in [10] was 20 nM.

For `COC(=O)N/C=C/CCC(C)c1cc(O)c(C(=O)C(C)=Cc2sc(CC(C)C)cc2Br)c(=O)o1` (mixture of isomers) [APY124, methyl ((1E)-5-(3-(3-(3-bromo-5-isobutylthiophen-2-yl)-2-methylacryloyl)-4-hydroxy-2-oxo-2H-pyran-6-yl)hex-1-en-1-yl)carbamate], the MIC came to 6 µg/mL in experiment [1]; 0.3 µg/mL in experiment [2]; 10 µg/mL in experiment [3]; 6 µg/mL in experiment [4]; 30 µg/mL in [5]; 0.9 µg/mL in [6]. Moreover, the MIC in [7] was found to be 10 µg/mL; in experiment [8] it was 0.2 µg/mL; in experiment [9], 6 µg/mL; in experiment [11], 50 µg/mL. In experiment [10], the IC50 is 4 nM.
